Assay results as given in patent US10154994B2, “Ophthalmic formulations of tyrosine kinase inhibitors, methods of use thereof, and preparation methods thereof” (Allgenesis Biotherapeutics Inc., priority 2015, dated 2018).
Counter-ions that a name gives are not always drawn. Like-named read-outs stand apart in the source and are kept apart here.

Tested on: cornea suture-induced neovascularization
Conditions: for CNV Branching / CNV Length / CNV Area (~%): 6 eyes; for CNV Area (~%): percentage estimate of involved corneal circumference
Experimental: For this study, New Zealand white rabbits at approximately 5 months old with no visible signs of ocular defects were selected. Suture placement was performed on Day 1. Prior to surgery, the right eye of each animal was dilated using a mydriatic agent (1% tropicamide), and the conjunctiva was flushed with approximately 10 mL benzalkonium chloride (Zephiran™) diluted in sterile water, U.S.P. to 1:10,000 (v/v). Saline (0.9%) was also used to flush the eye along with benzalkonium chloride. Animals were anesthetized with isoflurane/oxygen during the procedure. Hydration of the eyes was maintained by irrigation with saline solution, as needed. The procedure was conducted under a dissecting or surgical microscope. The cornea of the right eye was exposed using an eyelid speculum. The central corneal area was appropriately marked as considered necessary by the surgeon. […] The outer point of suture placement was chosen near the limbus (1-2 mm), and the inner suture point was chosen near the corneal center, equidistant from the limbus, to obtain standardized angiogenic responses. The left eye remained untreated.
The study design is shown below in Table 7:
Dose formulations were administered by subconjunctival injection to the sutured right eye of each animal of the Avastin control group (5 mg) on Days 1 and 7, at a dose volume of 200 μL/dose immediately post suture placement. Dose formulations were given three times daily (TID) for the group administered with suspension vehicle, 0.3% Axitinib, 0.3% Nintedanib Ethanesulfonate, or 0.3% Sorafenib Tosylate for a duration of 14 days. […] The dosing volume was one 35 μL drop per dose. After the dose was administered, the upper and lower eyelids were gently held together to prevent the loss of material and to distribute the dose across the eye.
Ocular imaging and neovascularization assessments were performed once pre-treatment, and also once on Days 7 and 14. A pre-anesthetic cocktail of Ketamine (15 mg/kg) and Dexmedetomidine (0.25 mg/kg) was administered subcutaneously, and the animals were maintained with isoflurane/oxygen mix prior to and during the procedure. Still images of the cornea were taken from both eyes (from the center of each eye, nasally and temporally). Images were evaluated qualitatively and quantitatively to assess the degree of corneal neovascularization (CNV), and to determine the area affected by CNV. The length of the vessel incursion was measured from the limbus to the distal end of the encroaching CNV using a digital micrometer (in millimeters) for each selected image. Qualitative assessments included the percentage estimate of involved corneal circumference (using multiple images as necessary), and vessel branching.

[1] = topical TID for 14 days, study conclusion

Compound	corneal neovascularization observed (Day 7)	CNV Branching (Day 7)	CNV Length (Day 7)	CNV Area (~%) (Day 7)	tolerability in the CNV study (topical TID for 14 days)	efficacy in preventing or slowing CNV progression [1]	efficacy compared with Avastin (Day 7)	corneal neovascularization observed (Day 14)	CNV Branching (Day 14)	efficacy compared with Avastin (vessel length, surface area and vessel branching; words) (Day 15)	tolerability in the CNV study (rabbit, in vivo)	efficacy versus Avastin in preventing or slowing CNV progression (study conclusion)	corneal neovascularization observed (Day 7 and Day 14)	CNV Length (Day 14)	CNV Area (~%) (Day 14)	CNV Branching (Pre)	CNV Length (Pre)	CNV Area (~%) (Pre)
CNC(=O)c1ccccc1Sc1ccc2c(/C=C/c3ccccn3)n[nH]c2c1 [Axitinib]	not observed	very slight to moderate	approximately 0.5 mm	~20%	well-tolerated	efficacious in preventing or slowing CNV progression												
COC(=O)c1ccc2c(c1)NC(=O)/C2=C(\Nc1ccc(N(C)C(=O)CN2CCN(C)CC2)cc1)c1ccccc1 [Nintedanib Ethanesulfonate]	not observed	very slight to moderate	approximately 0.5 mm	~20%		efficacious in preventing or slowing CNV progression	comparable to one given Avastin	sparse	no branching	slightly more efficacious	well-tolerated	more efficacious, or at least comparable to Avastin						
CNC(=O)c1cc(Oc2ccc(NC(=O)Nc3ccc(Cl)c(C(F)(F)F)c3)cc2)ccn1 [Sorafenib Tosylate]													Slight corneal neovascularization					
Avastin: active control, 5 mg/eye by subconjunctival injection		0	0 mm	0%				minimal CNV	1					0.45 mm	13%	0	0 mm	0%
